Reference: ChEMBL document CHEMBL1201862, “PubChem BioAssay data set” (2004)
pIC50: −log10 of the molar value. Activity calls are given as the source filed them.

Key:
[1] = target: Peroxisome proliferator-activated receptor gamma/Nuclear receptor coactivator 1 (Homo sapiens, UniProt P37231); assay: TR-FRET dose response biochemical High Throughput Screening assay for agonists of the steroid receptor coactivator 1 (SRC-1) recruitment by the peroxisome proliferator-activated receptor gamma (PPAR gamma): non-selective agonists. [Related pubchem assays (depositor defined):AID1300, AID1808, AID504735, AID631]; assay type: protein assay
Peroxisome proliferator-activated receptor gamma/Nuclear receptor coactivator 1, sequence (P37231 whole entry): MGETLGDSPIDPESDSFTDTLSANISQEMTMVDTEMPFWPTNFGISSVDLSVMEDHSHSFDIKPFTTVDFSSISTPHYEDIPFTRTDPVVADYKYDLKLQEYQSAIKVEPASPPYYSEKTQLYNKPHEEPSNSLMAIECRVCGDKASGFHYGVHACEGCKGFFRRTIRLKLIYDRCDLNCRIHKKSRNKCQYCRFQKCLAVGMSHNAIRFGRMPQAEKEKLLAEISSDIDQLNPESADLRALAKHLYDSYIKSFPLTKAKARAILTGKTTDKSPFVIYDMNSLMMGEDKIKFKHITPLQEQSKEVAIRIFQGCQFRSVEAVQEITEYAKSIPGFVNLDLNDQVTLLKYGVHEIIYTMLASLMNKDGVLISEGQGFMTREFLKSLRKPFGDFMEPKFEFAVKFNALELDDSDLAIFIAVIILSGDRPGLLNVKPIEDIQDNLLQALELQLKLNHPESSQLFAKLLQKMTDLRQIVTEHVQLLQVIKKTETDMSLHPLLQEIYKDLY
Peroxisome proliferator-activated receptor gamma/Nuclear receptor coactivator 1, sequence (Q15788 whole entry, further chain): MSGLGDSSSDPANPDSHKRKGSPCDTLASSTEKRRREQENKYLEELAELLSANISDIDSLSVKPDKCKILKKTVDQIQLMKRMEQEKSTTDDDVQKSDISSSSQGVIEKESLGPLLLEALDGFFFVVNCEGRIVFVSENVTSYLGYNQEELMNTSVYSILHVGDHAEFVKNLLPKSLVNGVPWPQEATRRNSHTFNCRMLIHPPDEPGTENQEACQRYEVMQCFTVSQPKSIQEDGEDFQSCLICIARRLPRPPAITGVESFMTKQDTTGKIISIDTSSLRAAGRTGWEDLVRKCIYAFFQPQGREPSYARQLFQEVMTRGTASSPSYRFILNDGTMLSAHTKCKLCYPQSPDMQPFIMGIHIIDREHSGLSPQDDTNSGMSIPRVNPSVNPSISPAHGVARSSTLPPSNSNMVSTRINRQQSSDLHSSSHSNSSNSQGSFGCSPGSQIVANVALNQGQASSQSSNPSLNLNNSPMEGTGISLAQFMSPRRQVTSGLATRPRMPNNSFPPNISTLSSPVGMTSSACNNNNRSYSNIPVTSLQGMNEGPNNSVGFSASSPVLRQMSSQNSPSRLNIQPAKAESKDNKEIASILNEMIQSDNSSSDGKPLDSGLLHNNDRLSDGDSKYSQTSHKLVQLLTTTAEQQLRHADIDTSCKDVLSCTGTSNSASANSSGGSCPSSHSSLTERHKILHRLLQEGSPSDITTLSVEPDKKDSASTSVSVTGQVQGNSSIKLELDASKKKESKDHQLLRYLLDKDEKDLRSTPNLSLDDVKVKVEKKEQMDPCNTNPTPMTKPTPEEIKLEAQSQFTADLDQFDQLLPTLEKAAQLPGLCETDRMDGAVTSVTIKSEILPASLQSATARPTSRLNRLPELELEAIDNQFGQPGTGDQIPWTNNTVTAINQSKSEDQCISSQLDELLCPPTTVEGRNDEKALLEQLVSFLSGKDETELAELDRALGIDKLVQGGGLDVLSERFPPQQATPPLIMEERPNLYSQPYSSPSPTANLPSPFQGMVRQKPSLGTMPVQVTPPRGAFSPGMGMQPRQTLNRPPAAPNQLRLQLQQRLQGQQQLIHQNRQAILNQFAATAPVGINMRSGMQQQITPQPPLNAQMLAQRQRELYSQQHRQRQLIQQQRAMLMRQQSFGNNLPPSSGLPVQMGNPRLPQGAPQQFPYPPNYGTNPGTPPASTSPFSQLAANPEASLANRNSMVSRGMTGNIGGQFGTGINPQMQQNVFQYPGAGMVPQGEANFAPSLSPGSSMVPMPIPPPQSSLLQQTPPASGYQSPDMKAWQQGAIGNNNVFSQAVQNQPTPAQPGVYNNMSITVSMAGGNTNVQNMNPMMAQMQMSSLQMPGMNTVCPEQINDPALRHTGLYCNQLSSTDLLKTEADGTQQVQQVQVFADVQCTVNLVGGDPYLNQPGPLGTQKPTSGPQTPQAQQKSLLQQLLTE

[2] = target: Peroxisome proliferator-activated receptor gamma/Nuclear receptor coactivator 3 (Homo sapiens, UniProt P37231); assay: TR-FRET dose response biochemical High Throughput Screening assay for agonists of the steroid receptor coactivator 3 (SRC-3) recruitment by the peroxisome proliferator-activated receptor gamma (PPAR gamma): non-selective agonists. [Related pubchem assays: 1301 (Confirmation screen.), 1048 (Primary screen.)]; assay type: functional
Peroxisome proliferator-activated receptor gamma/Nuclear receptor coactivator 3, sequence (P37231 whole entry): as the sequence (P37231 whole entry) above
Peroxisome proliferator-activated receptor gamma/Nuclear receptor coactivator 3, sequence (Q9Y6Q9 whole entry, further chain): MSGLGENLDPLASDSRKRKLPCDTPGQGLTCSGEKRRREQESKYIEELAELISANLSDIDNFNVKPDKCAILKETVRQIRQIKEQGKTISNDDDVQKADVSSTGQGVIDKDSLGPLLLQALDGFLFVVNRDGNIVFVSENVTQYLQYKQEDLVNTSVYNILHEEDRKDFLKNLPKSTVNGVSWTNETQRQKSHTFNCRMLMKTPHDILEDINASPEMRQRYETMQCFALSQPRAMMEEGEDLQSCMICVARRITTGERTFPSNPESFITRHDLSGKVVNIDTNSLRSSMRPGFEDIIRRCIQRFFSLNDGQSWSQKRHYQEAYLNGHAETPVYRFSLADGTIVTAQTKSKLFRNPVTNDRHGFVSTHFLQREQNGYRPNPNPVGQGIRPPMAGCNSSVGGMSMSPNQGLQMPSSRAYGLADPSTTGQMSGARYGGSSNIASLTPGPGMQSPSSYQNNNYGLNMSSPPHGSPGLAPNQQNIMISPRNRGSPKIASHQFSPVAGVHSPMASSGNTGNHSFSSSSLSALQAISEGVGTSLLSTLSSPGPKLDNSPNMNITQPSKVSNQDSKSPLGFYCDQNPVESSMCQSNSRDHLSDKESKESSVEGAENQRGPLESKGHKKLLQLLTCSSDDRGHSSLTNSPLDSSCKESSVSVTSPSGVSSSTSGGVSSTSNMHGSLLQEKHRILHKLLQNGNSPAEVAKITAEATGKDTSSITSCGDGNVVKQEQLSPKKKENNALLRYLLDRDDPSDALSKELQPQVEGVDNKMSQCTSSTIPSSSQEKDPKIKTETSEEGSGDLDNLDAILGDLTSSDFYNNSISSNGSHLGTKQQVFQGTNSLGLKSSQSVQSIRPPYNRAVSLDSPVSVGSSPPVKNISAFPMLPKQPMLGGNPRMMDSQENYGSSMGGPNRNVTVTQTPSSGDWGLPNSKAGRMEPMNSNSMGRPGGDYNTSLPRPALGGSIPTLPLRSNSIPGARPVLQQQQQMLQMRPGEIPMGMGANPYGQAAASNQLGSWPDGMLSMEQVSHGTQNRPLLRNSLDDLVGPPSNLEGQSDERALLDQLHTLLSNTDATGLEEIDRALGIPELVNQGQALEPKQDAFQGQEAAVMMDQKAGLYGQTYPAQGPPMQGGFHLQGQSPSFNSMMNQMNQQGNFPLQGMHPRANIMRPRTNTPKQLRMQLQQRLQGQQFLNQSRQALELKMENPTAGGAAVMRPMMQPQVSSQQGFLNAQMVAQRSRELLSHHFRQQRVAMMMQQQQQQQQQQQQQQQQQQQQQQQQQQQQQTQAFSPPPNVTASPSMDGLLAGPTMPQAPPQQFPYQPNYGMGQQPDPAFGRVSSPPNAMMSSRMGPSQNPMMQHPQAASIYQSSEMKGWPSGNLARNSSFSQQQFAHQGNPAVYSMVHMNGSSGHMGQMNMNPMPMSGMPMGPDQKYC

[3] = target: Peroxisome proliferator-activated receptor gamma/Nuclear receptor coactivator 2 (Homo sapiens, UniProt P37231); assay: TR-FRET dose response biochemical High Throughput Screening assay for agonists of the steroid receptor coactivator 2 (SRC-2) recruitment by the peroxisome proliferator-activated receptor gamma (PPAR gamma): non-selective agonists. [Related pubchem assays: 1297, 1032 ]; assay type: functional
Major prion protein = Major prion protein (Homo sapiens, UniProt P04156); assay type: functional, cell-based
[4] = target: T1, Ubiquitin-conjugating enzyme E2 N (Homo sapiens, UniProt P61088); assay type: functional;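 note: Dose-response confirmation in a TR-FRET assay detecting UBC13-driven polyubiquitin chain formation, inhibition measured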
T1 sequence (P61088 whole entry): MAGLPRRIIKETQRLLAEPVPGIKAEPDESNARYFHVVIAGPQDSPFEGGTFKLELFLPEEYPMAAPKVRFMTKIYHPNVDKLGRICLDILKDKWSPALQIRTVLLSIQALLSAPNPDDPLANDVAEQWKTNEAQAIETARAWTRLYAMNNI

[5] = target: DNA dC->dU-editing enzyme APOBEC-3G (Homo sapiens, UniProt Q9HC16); assay: Dose Response confirmation of small molecule APOBEC3G DNA Deaminase Inhibitors via a fluorescence-based single-stranded DNA deaminase assay. [Related pubchem assays (depositor defined):AID493012, AID493028]; assay type: functional
DNA dC->dU-editing enzyme APOBEC-3G, sequence (Q9HC16 whole entry): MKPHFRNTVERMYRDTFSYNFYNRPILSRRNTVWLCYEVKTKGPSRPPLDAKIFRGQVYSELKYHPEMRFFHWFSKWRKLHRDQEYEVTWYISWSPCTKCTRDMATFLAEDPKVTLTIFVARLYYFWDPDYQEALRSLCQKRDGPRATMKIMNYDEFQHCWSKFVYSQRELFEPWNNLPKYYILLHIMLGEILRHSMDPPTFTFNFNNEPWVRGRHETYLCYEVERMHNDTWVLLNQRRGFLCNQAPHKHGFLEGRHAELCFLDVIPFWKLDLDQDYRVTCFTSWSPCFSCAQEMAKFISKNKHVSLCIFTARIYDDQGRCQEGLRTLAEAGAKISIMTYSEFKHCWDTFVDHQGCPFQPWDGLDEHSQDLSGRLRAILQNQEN

[6] = target: DNA dC->dU-editing enzyme APOBEC-3A (Homo sapiens, UniProt P31941); assay: A3A deaminase inhibition for selectivity – biochemical, dose response (AID 504722); assay type: functional
DNA dC->dU-editing enzyme APOBEC-3A, sequence (P31941 whole entry): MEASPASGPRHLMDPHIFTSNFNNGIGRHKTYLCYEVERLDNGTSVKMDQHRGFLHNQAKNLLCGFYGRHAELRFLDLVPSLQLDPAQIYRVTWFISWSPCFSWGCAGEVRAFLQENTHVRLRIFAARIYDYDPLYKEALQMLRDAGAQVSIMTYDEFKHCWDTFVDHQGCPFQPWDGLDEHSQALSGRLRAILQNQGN

[7] = target: DNA (cytosine-5)-methyltransferase 1 (Homo sapiens, UniProt P26358); assay: inhibition of DNA methylation by DNMT1 – biochemical, fluorescent molecular beacon, confirmation (AID 602386); assay type: functional
[8] = viability loss in CEM21 cells – cell-based, CellTiter-Glo luminescence, cherry-picked, cytotoxicity control for viral fusion inhibitor project, dose response (AID 652042); assay type: functional;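 note: potency for signal decrease meaning cytotoxicity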
[9] = HIV-1 AD8 envelope cell-cell fusion blockers – cherry-pick, dose response (AID 652062); assay type: functional, cell-based;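 note: luciferase signal from cell-cell fusion driven by HIV-1 clade B AD8 Env; potency is for inhibitors of fusion seen as a drop in luminescence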
[10] = target: T2, Kappa-type opioid receptor (Homo sapiens, UniProt P41145); assay type: functional
T2 sequence (P41145 whole entry): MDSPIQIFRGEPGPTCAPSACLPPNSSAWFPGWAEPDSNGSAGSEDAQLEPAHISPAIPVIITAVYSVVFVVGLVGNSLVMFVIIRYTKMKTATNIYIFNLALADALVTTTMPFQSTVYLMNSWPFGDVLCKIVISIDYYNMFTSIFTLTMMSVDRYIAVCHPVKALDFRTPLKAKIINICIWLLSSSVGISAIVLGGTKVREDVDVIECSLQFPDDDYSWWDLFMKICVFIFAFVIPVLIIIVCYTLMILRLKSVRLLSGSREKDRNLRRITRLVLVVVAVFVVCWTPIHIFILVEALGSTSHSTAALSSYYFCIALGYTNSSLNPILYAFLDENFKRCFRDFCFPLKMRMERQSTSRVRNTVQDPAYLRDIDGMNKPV

Beta-galactosidase = Beta-galactosidase (Escherichia coli, UniProt Q8VNN2); assay type: functional
[11] = reduction of Shn3 3'UTR-driven luciferase in osteoblasts – cell-based, Clone20 osteoblasts, firefly luciferase, cherry-picked, dose response (AID 624132); assay type: functional;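 note: firefly luciferase luminescence from reporter carrying the Shn3 3'UTR in osteoblasts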
H9c2 = assay: cells; assay type: functional, cell-based; settings: Rattus norvegicus, H9c2, Myocardium
[12] = target: T2, Kappa-type opioid receptor; assay type: functional; remark: listed apart in the source
[13] = non-specific 3'UTR reporter inhibition in Clone20-Shn3RL – cell-based, Renilla luciferase, cherry-picked, counter-screen for Shn3 inhibitor project, dose response (AID 624133); assay type: functional
[14] = loss of viability in HepG2 cells – cell-based, CellTiter-Glo, cherry-picked, cytotoxicity control for Shn3 inhibitor project, dose response (AID 624134); assay type: functional
[15] = target: T3, Short transient receptor potential channel 4 (Mus musculus, UniProt Q9QUQ5); assay: block of DAMGO-driven TRPC4 calcium entry – cell-based, HEK293 TRPC4/mu-opioid, Fluo-4 calcium, dose response (AID 434942); assay type: functional;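 note: potency of inhibitors blocking the TRPC4 calcium response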
T3 sequence (Q9QUQ5 whole entry): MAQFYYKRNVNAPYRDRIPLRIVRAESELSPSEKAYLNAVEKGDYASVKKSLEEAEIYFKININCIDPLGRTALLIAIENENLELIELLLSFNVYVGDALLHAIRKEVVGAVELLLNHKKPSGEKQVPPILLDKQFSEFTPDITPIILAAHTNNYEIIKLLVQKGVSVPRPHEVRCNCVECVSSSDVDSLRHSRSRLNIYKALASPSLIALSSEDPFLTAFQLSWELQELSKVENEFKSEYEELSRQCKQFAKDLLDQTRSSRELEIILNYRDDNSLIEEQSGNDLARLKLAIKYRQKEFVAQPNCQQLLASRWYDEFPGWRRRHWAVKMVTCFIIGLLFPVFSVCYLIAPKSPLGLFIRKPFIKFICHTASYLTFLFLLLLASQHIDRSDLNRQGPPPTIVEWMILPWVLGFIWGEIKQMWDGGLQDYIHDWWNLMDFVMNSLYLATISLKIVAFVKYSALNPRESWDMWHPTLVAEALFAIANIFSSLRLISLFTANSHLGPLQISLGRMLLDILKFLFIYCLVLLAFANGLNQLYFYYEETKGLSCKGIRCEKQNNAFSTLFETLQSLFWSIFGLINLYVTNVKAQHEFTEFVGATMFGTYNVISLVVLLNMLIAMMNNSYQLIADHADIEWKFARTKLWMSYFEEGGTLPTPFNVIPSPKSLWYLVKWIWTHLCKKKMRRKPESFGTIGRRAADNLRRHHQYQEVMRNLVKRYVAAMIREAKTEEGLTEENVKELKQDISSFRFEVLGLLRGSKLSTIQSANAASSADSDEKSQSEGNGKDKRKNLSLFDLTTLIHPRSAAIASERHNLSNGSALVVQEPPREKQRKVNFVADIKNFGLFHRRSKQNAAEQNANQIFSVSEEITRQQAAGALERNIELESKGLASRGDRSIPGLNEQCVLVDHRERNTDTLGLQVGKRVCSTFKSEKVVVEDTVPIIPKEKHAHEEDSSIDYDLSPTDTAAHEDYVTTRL

[16] = target: T3, Short transient receptor potential channel 4; assay: calcium entry via TRPC4 opening agents – cell-based, HEK293 TRPC4/mu-opioid, Fluo-4 calcium, dose response (AID 434937); assay type: functional
[17] = target: Glyceraldehyde-3-phosphate dehydrogenase (Homo sapiens, UniProt P04406)
[18] = target: T4, Alkaline phosphatase, tissue-nonspecific isozyme (Homo sapiens, UniProt P05186); assay: potency against alkaline phosphatase TNAP – biochemical, luminescent, dose response, SAR follow-up (AID 1056)
T4 sequence (P05186 whole entry): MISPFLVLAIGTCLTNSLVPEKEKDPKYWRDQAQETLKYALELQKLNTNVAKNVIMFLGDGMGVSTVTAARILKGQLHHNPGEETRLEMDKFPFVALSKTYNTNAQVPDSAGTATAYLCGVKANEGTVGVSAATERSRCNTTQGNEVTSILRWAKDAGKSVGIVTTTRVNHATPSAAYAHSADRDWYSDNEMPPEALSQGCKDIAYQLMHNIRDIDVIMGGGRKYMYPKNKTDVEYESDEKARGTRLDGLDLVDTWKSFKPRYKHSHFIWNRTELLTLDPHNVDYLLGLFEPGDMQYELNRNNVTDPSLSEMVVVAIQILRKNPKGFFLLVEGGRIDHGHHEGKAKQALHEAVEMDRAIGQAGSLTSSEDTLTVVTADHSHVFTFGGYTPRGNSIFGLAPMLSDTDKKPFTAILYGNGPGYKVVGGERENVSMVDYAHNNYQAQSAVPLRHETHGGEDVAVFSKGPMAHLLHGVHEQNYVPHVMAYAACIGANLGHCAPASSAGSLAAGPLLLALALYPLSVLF

[19] = target: T5, Rac GTPase-activating protein 1 (Homo sapiens, UniProt Q9H0H5); assay: blockers of MgcRacGAP-driven Rac1 GTP hydrolysis – biochemical, ADP Hunter fluorescence, primary and confirmatory, confirmation (AID 624330); assay type: functional
T5 sequence (Q9H0H5 whole entry): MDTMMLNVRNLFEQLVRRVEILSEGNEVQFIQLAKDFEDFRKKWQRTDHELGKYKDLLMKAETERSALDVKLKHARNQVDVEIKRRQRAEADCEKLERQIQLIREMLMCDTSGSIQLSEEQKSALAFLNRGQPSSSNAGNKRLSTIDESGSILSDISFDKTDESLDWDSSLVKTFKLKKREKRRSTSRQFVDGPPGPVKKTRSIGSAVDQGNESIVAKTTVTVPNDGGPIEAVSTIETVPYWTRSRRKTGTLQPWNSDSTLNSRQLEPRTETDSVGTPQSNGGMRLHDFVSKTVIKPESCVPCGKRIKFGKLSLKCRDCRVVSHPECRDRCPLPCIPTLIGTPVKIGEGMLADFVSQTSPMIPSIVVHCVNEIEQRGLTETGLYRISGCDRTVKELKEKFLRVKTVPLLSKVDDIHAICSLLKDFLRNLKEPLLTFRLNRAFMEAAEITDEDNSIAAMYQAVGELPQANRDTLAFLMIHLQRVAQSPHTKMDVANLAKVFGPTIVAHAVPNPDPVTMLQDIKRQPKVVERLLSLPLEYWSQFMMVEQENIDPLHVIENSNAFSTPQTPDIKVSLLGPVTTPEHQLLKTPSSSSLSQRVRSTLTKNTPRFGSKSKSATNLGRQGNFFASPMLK

[20] = target: T6, Carboxy-terminal domain RNA polymerase II polypeptide A small phosphatase 1 (Homo sapiens, UniProt Q9GZU7); assay: CTDSP1 inhibitors, concentration-response, biochemical, absorbance readout, ultra-high-throughput screen actives (AID 540297); assay type: functional
T6 sequence (Q9GZU7 whole entry): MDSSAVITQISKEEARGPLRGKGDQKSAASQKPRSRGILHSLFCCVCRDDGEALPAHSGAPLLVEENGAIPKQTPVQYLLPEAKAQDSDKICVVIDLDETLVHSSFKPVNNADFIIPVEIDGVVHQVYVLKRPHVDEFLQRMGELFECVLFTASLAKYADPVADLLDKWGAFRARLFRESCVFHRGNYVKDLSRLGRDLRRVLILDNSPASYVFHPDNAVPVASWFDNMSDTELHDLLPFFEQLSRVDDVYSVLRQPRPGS

[21] = viability of uninfected HEp-2 cells – cell-based, HTS, cytotoxicity control for RSV inhibitor project, dose response (AID 2410); assay type: functional; settings: human respiratory syncytial virus
[22] = target: T7, Polyadenylate-binding protein 1 (Homo sapiens, UniProt P11940); assay: MLLE binding blockers, Cy5 peptide tracer – biochemical, fluorescence polarization, Cy5-PAM2 peptide, secondary, miRNA deadenylation inhibitor project, dose response (AID 602260); assay type: functional; settings: read-out: IC50_Mean
[23] = target: T7, Polyadenylate-binding protein 1; assay: MLLE domain peptide-binding blockers, IC50 – biochemical, fluorescence polarization, FITC-PAM2 peptide, dose response (AID 602259); assay type: functional; settings: read-out: IC50_Mean

## Fc1ccc(COc2cccc(-c3nnc(S)o3)c2)cc1
[1]
  EC50: 9.44 µM (active)
[2]
  EC50: > 79.4 µM (not active)
[3]
  EC50: 8.05 µM (active)

## Sc1[nH]cnc2c3ccccc3nc1-2
cells
  IC50: > 138 µM (inactive)
Major prion protein
  IC50: 1.5 µM (active)
[4]
  IC50: > 20 µM (inactive)
[5]
  IC50: 3.65 µM (active)
[6]
  IC50: > 100 µM (inactive)

## CCOC(=O)C1CCCN(C(=O)c2cc(-c3ccco3)nc3ccccc23)C1 (stereo not given)
[7]
  IC50: 6.42 µM (active)

## O=C(NNC(=O)C(c1ccccc1)c1ccccc1)c1ccccn1
[8]
  AC50: 3.53 µM (active)
[9]
  AC50: 0.585 µM (active)
[10]
  pIC50: < 4.49
Beta-galactosidase
  EC50: > 31.5 µM (inactive)
[11]
  AC50: 2.87 µM (active)
H9c2
  IC50: > 79 µM (inactive)
[12]
  IC50: 17.5 µM (active)
[13]
  AC50: 2.52 µM (active)
[14]
  AC50: 5.11 µM (active)

## Cc1cc(N/N=C/c2ccccc2F)c2ccccc2n1
[15]
  EC50: 2.66 µM (active)

## Fc1ccc(C(c2nnnn2Cc2cccs2)N2CCN(C3CCCCC3)CC2)cc1 (stereo not given)
[16]
  EC50: 1.19 µM (active)

## c1cncc(-c2nnn[nH]2)c1
[17]
  IC50: > 100 µM (not active)
[18]
  IC50: > 100 µM (inactive)

## O=C(Cc1cccs1)NCCSc1c(-c2ccc(Cl)cc2)[nH]c2ccccc12
[1]
  EC50: 12.3 µM (inactive)
[2]
  EC50: > 2.94 µM (active)
[3]
  EC50: 15.6 µM (not active)

## Cc1cc(-c2nnc(S)n2/N=C/c2cccc(O)c2)[nH]n1
[19]
  IC50: 157 µM (active)
[5]
  IC50: 2.51 µM (active)
[6]
  IC50: > 100 µM (inactive)

## CC(C)c1ccc(NC(=S)N(C)CCc2ccccn2)cc1
[16]
  EC50: 5.96 µM (active)

## CCCCN(CC)CCNC(=O)c1cc2c(C)nc3ccccc3c2o1
[16]
  EC50: 0.944 µM (active)

## Cc1ccccc1N(C(=O)c1snc(C(N)=O)c1N)C(C(=O)NC1CCCC1)c1ccco1 (stereo not given)
[15]
  EC50: 2.99 µM (active)

## CC1CCCN(c2c3c(nc4ccccc24)CCCC3)C1 (stereo not given)
[15]
  EC50: 1.33 µM (active)

## COC(=O)c1sccc1-c1ccc(/C=N/OC(=O)c2ccccc2)o1
[1]
  EC50: 12.2 µM (inactive)
[2]
  EC50: > 79.4 µM (not active)
[3]
  EC50: 12.7 µM (not active)

## COc1ccc(/C(C)=N/NC(=O)CNC(=O)/C=C\c2ccco2)cc1
[20]
  IC50: 6.67 µM (active)

## Cc1nn(-c2ccccc2)c(C)c1/C=N/n1c(S)nnc1-c1ccncc1
[21]
  CC50: > 50 µM (active)
[5]
  IC50: 2.75 µM (active)
[6]
  IC50: > 100 µM (inactive)

## O=S(=O)(c1ccc(=S)[nH]c1)N1CCOCC1
[22]
  IC50: > 66 µM (inactive)
[5]
  IC50: 12.6 µM (active)
[6]
  IC50: > 100 µM (inactive)
[23]
  IC50: > 66 µM (inactive)

## CCOc1ccc(C(C)C)cc1S(=O)(=O)Nc1cccnc1
[17]
  IC50: > 100 µM (not active)
[18]
  IC50: 3.52 µM (active)
